From publication PMC12562324, “Surfactin Structural Variants Differentially Modulate Plant Immune Responses” (Biomolecules, 2025)

Columns and labels:
[1] = system: Arabidopsis thaliana Col-0 roots; test: [ROS]intra burst in roots, DCFH-DA fluorescent probe; type: cell-based; settings: mix of homologues, 10 µM, fold change at 20 min vs mock (DMSO 0.1%); n = 9 from three independent experiments; Figure 2B,C
Method: For cytoplasmic hydrogen peroxide (reflecting cytosolic/intracellular ROS and referred to hereafter as [ROS]intra) measurement in roots, 15 mm long Arabidopsis thaliana root segments, isolated from different two-week-old plants, were placed in a well (one root/well) of a microplate (96 Flat Black-Greiner Bio-One^TM CellStar^TM, Thermo Fisher Scientific, Hampton, VA, USA) filled with sterile water. After overnight incubation, roots were treated with 50 µM DCFH-DA (dichloro-dihydro-fluorescein diacetate; ACROS Organics, Geel, Belgium) for 10 min in the dark and rinsed with PBS, and next, wells were filled with CLP/mock solution. Fluorescence measurements (excitation wavelength 492 nm, emission wavelength 530 nm) were conducted by a Spark® (Tecan, Männedorf, Switzerland) microplate reader, using nine readings per well. Data, expressed as relative fluorescence increase, were obtained by subtracting the fluorescence measured at the first time point from the fluorescence measured at each time point (with the first time point being taken as 0). The fluorescence fold increase was defined for each repeat as the ratio between the fluorescence increase obtained at one time point for treatments and the mean fluorescence increase obtained at the same time point in mock-treated tissues.

[2] = system: protoplasts isolated from roots of Arabidopsis thaliana Col-0; test: [ROS]intra burst in root protoplasts, DCFH-DA; type: cell-based; settings: 10 µM, fold increase in fluorescence at 5 min; n = 12 from three independent experiments; Figure 2D
Method: Two-week-old Arabidopsis thaliana seedling roots (from 27 mg seeds) were collected and were cut into 1–2 mm segments and incubated in a protoplasting solution (20 mM MES pH 5.7, 0.4 M mannitol, 20 mM KCl, 10 mM CaCl2, 0.1% (w/v) BSA, 1.5% (w/v) cellulase R10 (Duchefa Biochemie, Haarlem, The Netherlands), 0.4% (w/v) macerozyme R10 (Duchefa Chimie)) for 3 h at room temperature and in the dark. After incubation, 1 mL of solution A (154 mM NaCl, 5 mM KCl, 125 mM CaCl2, 4 mM MES, pH = 5.7) was added inside. The suspension was agitated gently and filtered by a 70 µm pore filter to remove extra root debris. Filtered suspension was centrifuged at 850 g for 6 min at room temperature, and the pelleted protoplasts were rinsed three times with solution B (4 mM MES pH 5.7, 154 mM NaCl, 125 mM CaCl2, 5 mM KCl) before being resuspended in solution C (2 mM MES pH 5.7, 0.5 M mannitol, 20 mM KCl, 2 mM CaCl2) at a working concentration of 1–2 × 10^5 cells per mL. For [ROS]intra measurements in protoplasts, protoplasts isolated from roots of Arabidopsis thaliana Col-0 plants were incubated for 10 min with 5 µM of DCFH-DA. Then, wells of black 96-well microplates (96 Flat Black-Greiner Bio-One^TM CellStar^TM, Fischer Scientific) were loaded with 150 µL of protoplasts solution per well. After the addition of 50 µL of four-times-concentrated treatment, the fluorescence was recorded every minute using a microplate reader with an excitation filter at 485 ± 20 nm and emission filter at 535 ± 25 nm. The data were processed as for the roots.

[3] = system: Arabidopsis thaliana Col-0 root protoplasts; test: Calcium influx ([Ca2+]cyt) in root protoplasts, Fluo-4 AM probe; type: cell-based; settings: 10 µM, Fluo-4 normalized fluorescence (F/F0), within first 30 min; n = 6; Figure 4A,B
Method: Two-week-old Arabidopsis thaliana seedling roots (from 27 mg seeds) were collected and were cut into 1–2 mm segments and incubated in a protoplasting solution (20 mM MES pH 5.7, 0.4 M mannitol, 20 mM KCl, 10 mM CaCl2, 0.1% (w/v) BSA, 1.5% (w/v) cellulase R10 (Duchefa Biochemie, Haarlem, The Netherlands), 0.4% (w/v) macerozyme R10 (Duchefa Chimie)) for 3 h at room temperature and in the dark. After incubation, 1 mL of solution A (154 mM NaCl, 5 mM KCl, 125 mM CaCl2, 4 mM MES, pH = 5.7) was added inside. The suspension was agitated gently and filtered by a 70 µm pore filter to remove extra root debris. Filtered suspension was centrifuged at 850 g for 6 min at room temperature, and the pelleted protoplasts were rinsed three times with solution B (4 mM MES pH 5.7, 154 mM NaCl, 125 mM CaCl2, 5 mM KCl) before being resuspended in solution C (2 mM MES pH 5.7, 0.5 M mannitol, 20 mM KCl, 2 mM CaCl2) at a working concentration of 1–2 × 10^5 cells per mL. Calcium measurements were also performed on protoplasts with the Fluo-4 AM probe. Protoplasts isolated from roots of Arabidopsis thaliana Col-0 were incubated for 1 h with 5 µM of Fluo-4 AM (Thermo Fisher Scientific, Hampton, VA, USA) (from a 5 mM stock solution in DMSO). The suspension was then centrifuged at 750 g, and the supernatant was discarded to eliminate the remaining free fluo-4 AM. The protoplasts were resuspended in fresh solution C and were incubated for 1 h. Microplates (96 Flat Black-Greiner Bio-One^TM CellStar^TM, Fischer Scientific) were loaded with 150 µL of protoplast solution per well. After the addition of 50 µL of 4-times-concentrated treatment, the fluorescence was recorded every 15 s using a Spark® microplate reader (Tecan, Männedorf, Switzerland) with an excitation filter at 485 ± 20 nm and an emission filter at 535 ± 25 nm. The values obtained were then converted as normalized fluorescence increase (F/F0) by dividing the fluorescence measured at each time point (F) by the fluorescence measured at the first time point (F0).

Botrytis cinerea = test: Induced systemic resistance (ISR) against B. cinerea leaf infection after root treatment; type: in vivo; settings: Arabidopsis thaliana Col-0, hydroponic, 10 µM at roots 24 h before leaf infection, scored 4 dpi vs mock (0.1% EtOH); n = 30 from two independent experiments; Figure 5
Method: Plants were grown for 4 weeks in hydroponic conditions in Araponics systems containing a nutrient solution (0.25% (v/v) FLORAMICRO®, 0.25% (v/v) FLORABLOOM®, 0.25% (v/v) FLORAGRO®; General Hydroponics®, in volume ratio 1:1:1, as recommended by the manufacturer), with a photoperiod of 12 h and a temperature of 22 °C. Plants were then transferred into 10 mL vials filled with fresh nutrient solution and treated at the root level with CLPs or ethanol (mock treatment) to obtain final concentrations of 10 µM and 0.1%, respectively. After incubation for 24 h, plants were inoculated with Botrytis cinerea (Helotiales: Sclerotiniaceae) as the conidia solution. Spores were collected from B. cinerea grown on PDA plates for 4 weeks using a solution composed of 1.75 g/L KH2PO4; 0.74 g/L MgSO4; 4 g/L glucose, and 0.02% (v/v) Tween 20. After spore collection, the concentration was adjusted to 5 × 10^5 spores per mL, and spores were incubated at 30 °C for eight hours. Inoculation was conducted by inoculating a drop of 3 µL of conidia solution onto seven leaves per plant and fifteen plants per treatment. The number of spreading lesions was evaluated 96 h post infection.

Substance	[ROS]intra production in roots vs mock [1]	[ROS]intra burst in root protoplasts vs mock [2]	[Ca2+]cyt increase in root protoplasts [3]	Leaf infection by B. cinerea (disease level) after root treatment (Botrytis cinerea)
pumilacidin	did not retain any significant triggering activity	not active	not significant	no disease reduction
lichenysin	induced a significantly higher production of [ROS]intra	significant boosting activity	fast increase in [Ca^2+]cyt	significantly reduced leaf infection
surfactin [Srf]	induced a significantly higher production of [ROS]intra	significant boosting activity	fast increase in [Ca^2+]cyt	significantly reduced leaf infection
